Experimental data from paper PMC13371181, “A paracrine-to-autocrine shunt of GREM1 fuels colorectal cancer metastasis via ACVR1C” (Molecular Cancer, 2026).
“Also recorded” adds a separate entry of the source.

Key:
SW480 cells = assay: Scratch assay, SW480; type: cell-based, human; conditions: SW480, scratch assay 48 h; n = 3 independent experiments
Method: (§1) To investigate the effect of secreted GREM1 on CRC cells, an in vitro GREM1 secretion system was established using HEK293 cells. Stably GREM1-expressing cells (pcDNA3.1-GREM1) and empty-vector transfected cells (pcDNA3.1) were cultured in DMEM/F12 medium with 10% FBS until 40% confluence. After complete removal of the normal culture medium, HEK293-GREM1 and HEK293-Vec cells were continuously cultured in DMEM/F12 medium without FBS for 5 days before medium collection. GREM1 or Vector conditioned medium (GREM1-CM/Vec-CM) was then centrifuged at 1000 rpm for 30 min and the supernatant was collected for further study.
Cells were seeded into 6-well plates after centrifugation and digestion with 0.05% trypsin. When the cell density reached 90%, three vertical lines were scratched in each well with a 10 µL pipette tip and the floating cells were gently washed away with 1×PBS. Complete medium was added, and images of the scratch area were taken at 0 h. Three different fields of view were selected for each well. After photography, the medium was replaced with serum-free medium. Wound healing was documented at the same location after 24–48 h of incubation.

HCT116 and SW480 cells [1] = assay: EMT markers by immunoblotting and RT–qPCR; type: cell-based, human; conditions: GREM1-CM + GREM1 BAb, + SB505124 (1 µM) or + different concentrations of sb4 (sb4: immunoblotting)
Method: as §1
Protein was extracted from the cells with RIPA buffer (Beyotime, P0018) or NP40 lysis buffer (Beyotime, P0013F) and separated by SDS-PAGE, and transferred to polyvinylidene difluoride membranes. […] Band intensity was quantified using Fiji (ImageJ) by grayscale analysis.
Total RNA was extracted using Trizol reagent (Invitrogen, 15596026). […] The SYBR Green Premix Pro Taq HS qPCR Kit (Accurate Biology, AG11701) was then used to quantify mRNA expression according to the manufacturer’s instructions. All results were calculated using the 2^−ΔΔCt method. […]

HCT116 cells = assay: Subcutaneous transplantation of GREM1-CM-pretreated HCT116 cells in nude mice; type: in vivo, human cells in nude mice; conditions: SB505124 10 mg/kg i.p. every other day
Method: For cecum-to-liver metastasis model, 1 × 10^6 MC38-luc cells were resuspended in 50 µL of PBS and injected into the cecum of GD mice or control mice (Grem1-CreER^T2/Rosa-LSL-DTA mice) (n = 6 mice in each group); 5 × 10^6 HCT116-luc cells transduced with lentivirus carrying a pLV or pLV-GREM1 were injected into the cecum of NOG mice (n = 5 mice in each group). SB505124 was administered via intraperitoneal injection at a dose of 10 mg/kg once every other day. The metastases were examined every 5 days post injection using an IVIS Lumina Imaging System. Mice were euthanized between 2 and 6 weeks after injection. […] Mice were euthanized 4 weeks after injection. The tumor tissues were collected for further evaluation.
Figure S8. SB505124 inhibits GREM1-CM-induced EMT and metastasis of CRC in vivo. […] D, RT–qPCR analysis of epithelial marker CDH1 and mesenchymal markers CTNNB1, SNAI1, ZEB1 in subcutaneous tumor tissues from the indicated treatment groups. n = 3 independent experiments. E-G, Representative IF images (E) and quantification (F, G) of E-CAD (green), SNAIL (red), and DAPI (blue) staining in tumors from the indicated groups. […] H, I, Representative IVIS images (H) and quantification (I) of NOG mice that were injected with HCT116-luc cells in the cecum wall and treated with either SB505124 or vehicle via abdominal injection. Liver metastases were imaged and quantified using the IVIS Lumina Imaging System (n = 5 mice per group). For B–D, F, G and I, data are presented as mean ± s.e.m. P values were calculated using one-way ANOVA with Bonferroni multiple-comparison test (B–D, F, and G) or two-tailed Student’s t-test (I).

HCT116 and SW480 cells [2] = assay: Transwell invasion assay; type: cell-based, human; conditions: HCT116 and SW480, Matrigel transwell, 48 h; n = 3 independent experiments
Method: as §1
Cells (1 × 10^5) were seeded in serum-free medium in the Matrigel-coated (Corning, 354480) transwell chambers (24-well insert, 8-µm pore size; BD Biosciences) for invasion experiments. The lower chamber was filled with RPMI1640 or DMEM containing 20% FBS. The migration of HCT116 and SW480 cells was measured in three random visual fields and quantified by microscopy after 48 h of incubation, followed by staining with DAPI or crystal violet. The invasive capacity of the cells was assessed using ImageJ software for quantification.

Cc1cccc(-c2[nH]c(C(C)(C)C)nc2-c2ccc3c(c2)OCO3)n1 [SB505124]
GREM1-CM-induced migration, effect of inhibitor (SW480 cells): abolished; also recorded: suppressed
GREM1-CM-induced EMT, effect of treatment (HCT116 and SW480 cells [1]): significantly blocked GREM1-CM–induced p-SMAD2/3 activation and EMT
E-CAD and SNAIL expression in subcutaneous tumors (HCT116 cells; IF, n = 5 mice per group): restored E-CAD expression and suppressed SNAIL expression
subcutaneous tumor progression and EMT (HCT116 cells; nude mice, GREM1-CM-pretreated HCT116, n = 6 mice per group): suppressed tumor progression and EMT
GREM1-CM-induced invasion, effect of inhibitor (HCT116 and SW480 cells [2]): abolished; also recorded: significantly reduced
